Experiments:
[1] = 101.33 kPa, Liquid
[2] = xn = mol fraction of the nth substance listed; details: 101 kPa, Fluid (supercritical or subcritical phases), x1 = 0
[3] = cn = amount concentration of the nth substance listed, in mol/dm3; details: 101 kPa, Liquid, Direct current cell with electrodes

CCn1cc[n+](C)c1.F[B-](F)(F)F [1-ethyl-3-methylimidazolium tetrafluoroborate]
[1]
Details | mass density [kg/m3]
303.2 K | 1278.7
308.2 K | 1275
313.2 K | 1271.4
318.2 K | 1267.8
323.2 K | 1264.2

CCn1cc[n+](C)c1.F[B-](F)(F)F [1-ethyl-3-methylimidazolium tetrafluoroborate] + O
[2]
Details | binary diffusion coefficient [m2/s]
303.2 K | 1.5e-09
308.2 K | 1.57e-09
313.2 K | 1.69e-09
318.2 K | 1.88e-09
323.2 K | 2.01e-09

molar conductivity [S·m2/mol], [3]
Details | 303.2 K | 308.2 K | 313.2 K | 318.2 K | 323.2 K
c1 = 1e-09 | 0.0119 | 0.013 | 0.0139 | 0.0149 | 0.0162
c1 = 5.5e-09 | 0.0111 | 0.0121 | 0.0131 | 0.0142 | 0.0153
c1 = 1.32e-08 | 0.0105 | 0.0116 | 0.0125 | 0.0136 | 0.0146
c1 = 2.22e-08 | 0.0101 | 0.0111 | 0.012 | 0.013 | 0.014
c1 = 4.15e-08 | 0.009 | 0.0099 | 0.0108 | 0.0117 | 0.0127

CCn1cc[n+](C)c1.O=S(=O)([O-])C(F)(F)F [1-ethyl-3-methylimidazolium trifluoromethanesulfonate]
[1]
Details | mass density [kg/m3]
303.2 K | 1377.3
308.2 K | 1373.3
313.2 K | 1369.3
318.2 K | 1365.3
323.2 K | 1361.2

CCn1cc[n+](C)c1.O=S(=O)([O-])C(F)(F)F [1-ethyl-3-methylimidazolium trifluoromethanesulfonate] + O
[2]
Details | binary diffusion coefficient [m2/s]
303.2 K | 1.16e-09
308.2 K | 1.27e-09
313.2 K | 1.51e-09
318.2 K | 1.66e-09
323.2 K | 1.8e-09

molar conductivity [S·m2/mol], [3]
Details | 303.2 K | 308.2 K | 313.2 K | 318.2 K | 323.2 K
c1 = 1.2e-09 | 0.0083 | 0.0093 | 0.0101 | 0.011 | 0.012
c1 = 3.8e-09 | 0.0079 | 0.0088 | 0.0097 | 0.0106 | 0.0114
c1 = 8.7e-09 | 0.0077 | 0.0085 | 0.0093 | 0.0102 | 0.0111
c1 = 1.86e-08 | 0.0073 | 0.008 | 0.0088 | 0.0095 | 0.0103
c1 = 3.19e-08 | 0.0069 | 0.0077 | 0.0084 | 0.0092 | 0.01

F[B-](F)(F)F.[Li+] [lithium fluoroborate] + O
molar conductivity [S·m2/mol], [3]
Details | 303.2 K | 308.2 K | 313.2 K | 318.2 K | 323.2 K
c1 = 3e-09 | 0.0117 | 0.0126 | 0.0134 | 0.0144 | 0.0158
c1 = 1.11e-08 | 0.0111 | 0.0122 | 0.0129 | 0.0139 | 0.0155
c1 = 2.73e-08 | 0.0106 | 0.0119 | 0.0125 | 0.0135 | 0.0152
c1 = 4.81e-08 | 0.0103 | 0.0115 | 0.0121 | 0.0131 | 0.0149
c1 = 7.55e-08 | 0.01 | 0.0112 | 0.0118 | 0.0127 | 0.0145
